Laboratory results reported in US11725217B2, “Methods to enhance myocardial regeneration and/or repair” (Regents of the University of Minnesota, priority 2018, dated 2023).
Where a SMILES comes first, the peptide text is derived from it. The star is where a group is joined. Cbz = O=C(OCc1ccccc1)*; CH2F = FC*

Experiments:
[1] = test system: isolated mouse neonatal cardiomyocytes; assay: Proliferation of cultured neonatal (P1) cardiomyocytes (cell number, EdU incorporation, Ki67, FACS); type: cell-based; details: for Ki67+-Actinin+ cells: versus DMSO control; for EdU+ cardiomyocytes: pan-caspase inhibition experiment, 48 h, SAG with/without pan-caspase inhibition
Description: Immunohistochemistry was performed on cryosections (10 μm thick) using standard procedures (Singh et al., 2012; Singh et al. 2007; Adhikari et al., 2011; Singh et al., 2010). Briefly, sections were rehydrated, permeabilized and blocked with 10% normal donkey serum (NDS), 0.1% Triton X-100 in PBS at room temperature and incubated overnight at 4° C. with primary antibodies: α-actinin (Abeam; 1:300), desmin (Novus biologicals; 1:300), Shh (Santa Cruz Biotechnology; 1:200), endomucin (Abeam; 1:100), SM22 (Abeam; 1:400), α-phospho-Histone H3 (Ser10) (Millipore; 1:100), Ki67 (Abcam; 1:200), PCNA (Santa Cruz Biotechnology; 1:100), Mef2a (Santa Cruz Biotechnology; 1:100), Smoothened (Abcam; 1:200), Nkx 2-5 (Santa Cruz Biotechnology; 1:100) and GFP (ThermoFisher Scientific; 1:300) sera. Sections were rinsed and incubated with combinations of secondary antibodies (1:400) including Alexa 488, Alexa 594, Cy3 and Cy5 (Jackson ImmunoResearch Laboratories). EdU staining was performed using the EdU labeling kit (Life Technologies)
Ventricular cardiomyocytes were isolated using previously published protocols (Collesi et al. 2008). Briefly, ventricles were dissected from P1 pups, minced in CBFHH (calcium and bicarbonate-free Hanks with Hepes) buffer. Subsequently, the minced ventricles were digested in CBFHH buffer containing 1.75 mg/ml of trypsin and 20 μg/ml of DNaseII (Sigma-Aldrich). Cells were preplated for 1 h (3 times) onto 100-mm primaria (Corning Life Sciences) dishes in culture medium containing 10% serum to remove fibroblasts. Unattached cardiomyocytes were plated at a desired density. […] After 12 h, the culture medium was changed and cells were subjected to the different treatments (SAG; 4 μg/mL and CyA; 5 μg/ml) and analyzed. For apoptotic pathway inhibition, neonatal cardiomyocytes were treated with cell permeable small molecule inhibitor (Z-VAD-FMK; R&D Systems) with or with SAG. For the EdU incorporation assay, cardiomyocytes were incubated with 20 μM EdU for 48 h and fixed using 4% PFA for 10 min at room temperature. […] For qPCR and FACS analysis, cells were harvested using trypsin and processed for further analysis. […] For the EdU incorporation assay, cardiomyocytes were incubated with 20 μM EdU for 48 h and fixed using 4% PFA for 10 min at room temperature.

HH signaling [2] = assay: qPCR of HH pathway and cell cycle transcripts in neonatal cardiomyocytes; type: cell-based, mouse; details: for Gli1 expression (qPCR) / Gli3 expression (qPCR) / Mycn transcripts (qPCR): isolated mouse neonatal cardiomyocytes
Description: (§1) RNA isolation and qPCR analysis from newt tissue was performed as previously described^5. For chamber based qPCR analysis, the regenerating heart including BA, AT and ventricle was harvested and rinsed in PBS to remove blood cells. Subsequently, the BA, AT and ventricle were collected from heart tissue (n=12) for further processing. RNA isolation from cultured cardiomyocytes was performed using a standard protocol as per the manufacturer's instructions. Total RNA was isolated using the miRVANA kit (Ambion) and cDNA was made using SuperScript […] kit (Invitrogen).
Briefly, ventricles were dissected from P1 pups, minced in CBFHH (calcium and bicarbonate-free Hanks with Hepes) buffer. […] Cells were preplated for 1 h (3 times) onto 100-mm primaria (Corning Life Sciences) dishes in culture medium containing 10% serum to remove fibroblasts. Unattached cardiomyocytes were plated at a desired density. […] For apoptotic pathway inhibition, neonatal cardiomyocytes were treated with cell permeable small molecule inhibitor (Z-VAD-FMK; R&D Systems) with or with SAG. For the EdU incorporation assay, cardiomyocytes were incubated with 20 μM EdU for 48 h and fixed using 4% PFA for 10 min at room temperature. […] For qPCR and FACS analysis, cells were harvested using trypsin and processed for further analysis. For the time-lapse microscopic experiments, isolated P7 mCherry+ cardiomyocytes were plated on glass-bottom petri dish coated with fibronectin. After 2 h of attachment, media was changed containing DMSO or SAG and the petri dish was placed in the environmental chamber for imaging. […] Briefly, the adult heart tissue was dissociated by perfusion of a collagenase type 2 enzyme solution. Isolated cardiomyocytes were cultured in 1% serum media in the presence of DMSO or SAG. For the EdU incorporation assay, cardiomyocytes were incubated with 20 μM EdU for 48 h and fixed using 4% PFA for 10 min at room temperature.

regenerating newt heart = details: continuous blockade of HH signals, CyA 2 μg/mL in aquarium water daily; n=8, p<0.05
Description: Adult red-spotted newts, Notophthalmus viridescens, were housed as described in Singh et al. (2012). For heart resection surgery, adult newts were anesthetized in 0.1% MS-222 solution for 10 min. Each newt was placed in a supine position under a stereomicroscope. The outer skin was wiped using 70% ethanol-chlorhexidine solution and the pericardial sac was opened to expose the heart. The apex of the ventricle was resected (˜25-30%) using iricdectomy scissors. Following resection, the blood flow was controlled by the formation of the blood clot. The resected heart was maneuvered carefully into the pericardial sac and sutured using 8.0 ethilon monofilament sutures. Following resection surgery, newts were allowed to recover in an isolated tank containing sulfmerazine antibiotic solution and later placed in their designated aquariums. The resected ventricular mass was measured using a Sartorius weighing balance. […] CyA-mediated inhibition of HH signaling was achieved by daily treatment of the resected newts at 2 μg/mL diluted in the aquarium water. At specified time periods, animals were sacrificed and tissues were collected for further processing. For EdU labelling, the resected newts were injected intraperitoneally (i.p.) with 100 μg/gm of EdU for a 7 day period prior to sacrifice and harvested for immunohistochemical analysis. […]

[3] = test system: isolated mouse neonatal cardiomyocytes; assay: Live/dead assay in cultured neonatal cardiomyocytes; type: cell-based; details: 48 h; n=3
Description: (§2) Ventricular cardiomyocytes were isolated using previously published protocols (Collesi et al. 2008). Briefly, ventricles were dissected from P1 pups, minced in CBFHH (calcium and bicarbonate-free Hanks with Hepes) buffer. Subsequently, the minced ventricles were digested in CBFHH buffer containing 1.75 mg/ml of trypsin and 20 μg/ml of DNaseII (Sigma-Aldrich). Cells were preplated for 1 h (3 times) onto 100-mm primaria (Corning Life Sciences) dishes in culture medium containing 10% serum to remove fibroblasts. Unattached cardiomyocytes were plated at a desired density. Using this protocol, we routinely obtained >85-90% cardiomyocytes (confirmed using immunohistochemical techniques and an alpha-actinin antibody). […] For apoptotic pathway inhibition, neonatal cardiomyocytes were treated with cell permeable small molecule inhibitor (Z-VAD-FMK; R&D Systems) with or with SAG. For the EdU incorporation assay, cardiomyocytes were incubated with 20 μM EdU for 48 h and fixed using 4% PFA for 10 min at room temperature. P7 cardiomyocytes were isolated using a similar protocol as that of the P1 cardiomyocyte isolation protocol with modifications including the perfusion based tissue digestion using collagenase type-2 enzyme solution. >95% rod-shaped binucleated cardiomyocytes were routinely obtained using this protocol. […]

P7 cardiomyocytes = assay: Proliferation of isolated P7 cardiomyocytes (EdU incorporation, time-lapse microscopy); type: cell-based, mouse
Description: Ventricular cardiomyocytes were isolated using previously published protocols (Collesi et al. 2008). Briefly, ventricles were dissected from P1 pups, minced in CBFHH (calcium and bicarbonate-free Hanks with Hepes) buffer. Subsequently, the minced ventricles were digested in CBFHH buffer containing 1.75 mg/ml of trypsin and 20 μg/ml of DNaseII (Sigma-Aldrich). Cells were preplated for 1 h (3 times) onto 100-mm primaria (Corning Life Sciences) dishes in culture medium containing 10% serum to remove fibroblasts. Unattached cardiomyocytes were plated at a desired density. Using this protocol, we routinely obtained >85-90% cardiomyocytes (confirmed using immunohistochemical techniques and an alpha-actinin antibody). […] For apoptotic pathway inhibition, neonatal cardiomyocytes were treated with cell permeable small molecule inhibitor (Z-VAD-FMK; R&D Systems) with or with SAG. For the EdU incorporation assay, cardiomyocytes were incubated with 20 μM EdU for 48 h and fixed using 4% PFA for 10 min at room temperature. P7 cardiomyocytes were isolated using a similar protocol as that of the P1 cardiomyocyte isolation protocol with modifications including the perfusion based tissue digestion using collagenase type-2 enzyme solution. >95% rod-shaped binucleated cardiomyocytes were routinely obtained using this protocol. For qPCR and FACS analysis, cells were harvested using trypsin and processed for further analysis. For the time-lapse microscopic experiments, isolated P7 mCherry+ cardiomyocytes were plated on glass-bottom petri dish coated with fibronectin. After 2 h of attachment, media was changed containing DMSO or SAG and the petri dish was placed in the environmental chamber for imaging. Adult cardiomyocyte isolation was performed (Mahmoud et al., 2013). Briefly, the adult heart tissue was dissociated by perfusion of a collagenase type 2 enzyme solution. Isolated cardiomyocytes were cultured in 1% serum media in the presence of DMSO or SAG. For the EdU incorporation assay, cardiomyocytes were incubated with 20 μM EdU for 48 h and fixed using 4% PFA for 10 min at room temperature.

HH signaling [4] = assay: qPCR in P7 cardiomyocytes; type: cell-based, mouse; details: P7-isolated cardiomyocytes
Description: as §1
Ventricular cardiomyocytes were isolated using previously published protocols (Collesi et al. 2008). Briefly, ventricles were dissected from P1 pups, minced in CBFHH (calcium and bicarbonate-free Hanks with Hepes) buffer. Subsequently, the minced ventricles were digested in CBFHH buffer containing 1.75 mg/ml of trypsin and 20 μg/ml of DNaseII (Sigma-Aldrich). Cells were preplated for 1 h (3 times) onto 100-mm primaria (Corning Life Sciences) dishes in culture medium containing 10% serum to remove fibroblasts. Unattached cardiomyocytes were plated at a desired density. Using this protocol, we routinely obtained >85-90% cardiomyocytes (confirmed using immunohistochemical techniques and an alpha-actinin antibody). […]

[5] = test system: adult mouse cardiomyocytes; assay: EdU incorporation in isolated adult cardiomyocytes; type: cell-based; details: n=3, p<0.05
Description: as §2

day-60 hiPSC-CMs = assay: Proliferation of day-60 hiPSC-derived cardiomyocytes (EdU, Ki67); type: cell-based, human; details: 48 h, n=3, p<0.01
Description: The media was then changed with RPMI/B27 minus insulin and BMP4 and FGF from d1-d2. On d3, the medium was changed with RPMI/B27 minus insulin and IWP-4. The differentiated cells were maintained in RPMI/B27 with insulin media from d5-d60. […] Immunohistochemical analysis was performed as described previously.

CC1=C2C[C@H]3[C@@H](CC=C4C[C@@H](O)CC[C@@]43C)[C@@H]2CC[C@]12O[C@@H]1C[C@H](C)CN[C@H]1[C@H]2C [CyA, Cyclopamine]
Ki67+-Actinin+ cells ([1]; n=3): not detected | Gli1 expression (qPCR) (HH signaling [2]): reduced | Gli3 expression (qPCR) (HH signaling [2]): increased | Mycn transcripts (qPCR) (HH signaling [2]): reduced expression | heart regeneration following injury (regenerating newt heart): complete ablation of heart regeneration and induction of scar formation

c1ccc2c(Oc3nc(Nc4ccc(N5CCOCC5)cc4)c4ncn(C5CCCCC5)c4n3)cccc2c1 [Purmorphamine]
cardiomyocyte proliferation (Actinin+-EdU+, immunohistochemical images) ([1]; isolated neonatal cardiomyocytes pulsed with EdU, FIG. 20): promotes cardiomyocyte proliferation

CNC1CCC(N(Cc2cccc(-c3ccncc3)c2)C(=O)c2sc3ccccc3c2Cl)CC1 (stereo not drawn) [SAG]
increase in α-Actinin+-EdU+ cells compared to controls ([1]; SAG 4 μg/mL, EdU 48 h, n=4, p<0.05): 2.5 fold | increased cardiomyocyte proliferation, FACS analysis of α-Actinin+-EdU+ population ([1]; n=3, p<0.05): 2.5 fold | EdU+ cardiomyocytes ([1]; n=3): comparable increase | cardiomyocyte proliferation (α-Actinin+-EdU+) ([1]; serum-free conditions, n=3, p<0.05): increased cardiomyocyte proliferation | number of cultured neonatal cardiomyocytes ([1]; various concentrations): dose-dependent increase | Ki67+-Actinin+ cells ([1]; n=3): increased number | live/dead assay versus control [3]: No difference | Ptc1, Ccnd2, Ccnd1 and Ccne1 transcripts (qPCR) (HH signaling [2]; HH signaling activation): induction of cell cycle kinetics | Gli1 expression (qPCR) (HH signaling [2]): induced | Gli3 expression (qPCR) (HH signaling [2]): reduced | Mycn transcripts (qPCR) (HH signaling [2]): increased | levels of caspase-3 transcripts (qPCR) (HH signaling [2]; versus control, data not shown): unaltered | α-Actinin+-EdU+ cardiomyocytes (P7 cardiomyocytes; P7 cardiomyocytes, n=4): increased number | increase in number of mono-, bi-, and multi-nucleated cardiomyocytes (P7 cardiomyocytes; P7 cardiomyocytes, n=4, p<0.05): ~3 fold | dividing αMHC-mCherry+ P7 cardiomyocytes (time-lapse microscopy) (P7 cardiomyocytes; none found in DMSO control): multiple dividing | expression of Cdkn1b (p27) (qPCR) (HH signaling [4]): reduced expression | expression of Ptc1, Ccne1 and Ccnd2 (qPCR) (HH signaling [4]): increased expression | α-Actinin+-EdU+ cardiomyocytes [5]: increased number | increased α-Actinin+-EdU+ cardiomyocytes (day-60 hiPSC-CMs): 2 fold | increased α-Actinin+-Ki67+ cardiomyocytes (day-60 hiPSC-CMs): ~3 fold

COC(=O)C[C@H](NC(=O)[C@H](C)NC(=O)[C@@H](NC(=O)OCc1ccccc1)C(C)C)C(=O)CF [pan-caspase inhibitor, Z-VAD-FMK] (Cbz-Val-Ala-Asp(OMe)-CH2F)
EdU+ cardiomyocytes ([1]; n=3): did not result in any change
